In patent US8163771B2, “11 β-HSD1 modulators” (Exelixis, Inc., priority 2008, dated 2012) one finds IC50 data, which are given here for 20 compounds.

The target of this assay is T1, recombinant human 11 β-HSD1 (Homo sapiens, UniProt P28845).
T1 construct: made in house; host or cells: E. coli
T1 sequence (P28845 whole entry): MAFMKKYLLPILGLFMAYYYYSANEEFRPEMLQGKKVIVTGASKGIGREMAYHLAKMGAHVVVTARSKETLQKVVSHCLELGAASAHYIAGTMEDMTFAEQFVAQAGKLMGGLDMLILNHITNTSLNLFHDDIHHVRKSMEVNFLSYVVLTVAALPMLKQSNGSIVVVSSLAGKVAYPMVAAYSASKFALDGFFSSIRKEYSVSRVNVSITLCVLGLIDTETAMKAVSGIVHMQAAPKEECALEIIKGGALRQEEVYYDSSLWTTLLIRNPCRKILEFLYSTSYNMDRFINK
Nature of the assay: 11 β-HSD1 SPA Assay (Scintillation Proximity Assay). It counts as biochemical. The method in brief:
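Scintillation proximity read-out of cortisol formed from 40 nM [3H]cortisone by purified recombinant human enzyme (30-100 nM, E. coli) with 1 mM NADPH, pH7.4, 2 hours at room temperature; beads with cortisol antibody and glycyrrhetinic acid stop the reaction, read next day. IC50 derived from inhibition normalised to background and maximal wells.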
For orientation: SPA uses beads or plates that emit light when radiolabelled molecules are held near them.
The term IC50 denotes the midpoint of a concentration-inhibition curve. As for `CC(Oc1ccc(Cl)cc1Cl)C(=O)N[C@H]1C[C@H]2CC[C@@H](C1)N2c1ccc(C(=O)NC2CC2)cn1` (stereo partly drawn) [Example 82, N-cyclopropyl-6-[3-endo-({2-[(2,4-dichlorophenyl)oxy]propanoyl}amino)-8-azabicyclo[3.2.1]oct-8-yl]pyridine-3-carboxamide], the IC50 is below 200 nM.
On to `CC(C)(Oc1cc(F)c(F)cc1F)C(=O)N[C@H]1C[C@H]2CC[C@@H](C1)N2c1ccc(S(C)(=O)=O)cn1` [Example 232, 2-methyl-N-{8-[5-(methylsulfonyl)pyridin-2-yl]-8-azabicyclo[3.2.1]oct-3-endo-yl}-2-[(2,4,5-trifluorophenyl)oxy]propanamide], for which the IC50 is below 200 nM.
Regarding `CC(C)(Oc1ccc(Cl)cc1S(C)(=O)=O)C(=O)N[C@H]1C[C@H]2CC[C@@H](C1)N2c1ccc(C(N)=O)cn1` [Example 334, 6-{3-endo-[(2-{[4-chloro-2-(methylsulfonyl)phenyl]oxy}-2-methylpropanoyl)amino]-8-azabicyclo[3.2.1]oct-8-yl}pyridine-3-carboxamide], the IC50 is below 200 nM.
The result for `Cc1ccc(OC(C)(C)C(=O)N[C@H]2C[C@H]3CC[C@@H](C2)N3c2ccc(S(C)(=O)=O)cc2)c(Cl)c1` [Example 214, 2-[(2-chloro-4-methylphenyl)oxy]-2-methyl-N-{8-[4-(methylsulfonyl)phenyl]-8-azabicyclo[3.2.1]oct-3-endo-yl}propanamide] reads below 200 nM; that for `COc1ccc(OC(C)(C)C(=O)N[C@H]2C[C@H]3CC[C@@H](C2)N3c2ccc(S(C)(=O)=O)cn2)cc1` [Example 180, 2-methyl-2-{[4-(methyloxy)phenyl]oxy}-N-{8-[5-(methylsulfonyl)pyridin-2-yl]-8-azabicyclo[3.2.1]oct-3-endo-yl}propanamide], below 200 nM; that for `O=C(NC1CC1)c1ccc(N2[C@@H]3CC[C@H]2C[C@@H](NC(=O)C2(c4ccccc4Cl)CC2)C3)nc1` [Example 17, 6-[3-endo-({[1-(2-chlorophenyl)cyclopropyl]carbonyl}amino)-8-azabicyclo[3.2.1]oct-8-yl]-N-cyclopropylpyridine-3-carboxamide], below 200 nM.
Under `CC(C)(Oc1ccc(Cl)cc1Cl)C(=O)N[C@H]1C[C@H]2CC[C@@H](C1)N2c1ccc(S(C)(=O)=O)nc1` [Example 307, 2-[(2,4-dichlorophenyl)oxy]-2-methyl-N-{8-[6-(methylsulfonyl)pyridin-3-yl]-8-azabicyclo[3.2.1]oct-3-endo-yl}propanamide] stands below 200 nM; under `O=C(NC1CC1)c1ccc(N2[C@@H]3CC[C@H]2C[C@@H](NC(=O)C2(c4ccc(Cl)cc4)CCC2)C3)nc1` [Example 50, 6-[3-endo-({[1-(4-chlorophenyl)cyclobutyl]carbonyl}amino)-8-azabicyclo[3.2.1]oct-8-yl]-N-cyclopropylpyridine-3-carboxamide], below 200 nM; under `CC(C)(Oc1ccc(Cl)c2ccccc12)C(=O)N[C@H]1C[C@H]2CC[C@@H](C1)N2c1ccc(C(N)=O)cn1` [Example 297, 6-[3-endo-({2-[(4-chloronaphthalen-1-yl)oxy]-2-methylpropanoyl}amino)-8-azabicyclo[3.2.1]oct-8-yl]pyridine-3-carboxamide], below 200 nM.
The result for `COc1ccc(OC(C)(C)C(=O)NC2CC3CCC(C2)N3c2ccc(S(C)(=O)=O)cn2)c(Cl)c1` (stereo not drawn) [Example 253, 2-{[2-chloro-4-(methyloxy)phenyl]oxy}-2-methyl-N-{8-[5-(methylsulfonyl)pyridin-2-yl]-8-azabicyclo[3.2.1]oct-3-endo-yl}propanamide] reads below 200 nM; that for `CC(C)(Oc1cc(Cl)c(F)cc1Cl)C(=O)N[C@H]1C[C@H]2CC[C@@H](C1)N2c1ccc(C(N)=O)cn1` [Example 99, 6-[3-endo-({2-[(2,5-dichloro-4-fluorophenyl)oxy]-2-methylpropanoyl}amino)-8-azabicyclo[3.2.1]oct-8-yl]pyridine-3-carboxamide], below 200 nM.
Take `CC(C)(Oc1ccc(Cl)cc1Cl)C(=O)N[C@H]1C[C@H]2CC[C@@H](C1)N2c1ccc(C(=O)Nc2ccon2)cn1` [Example 386, 6-(3-endo-{[2-(2,4-dichlorophenoxy)-2-methylpropanoyl]amino}-8-azabicyclo[3.2.1]oct-8-yl)-N-(isoxazol-3-yl)pyridine-3-carboxamide]: the IC50 was below 200 nM.
Under `CC(C)(Oc1ccc(F)cc1C(F)(F)F)C(=O)N[C@H]1C[C@H]2CC[C@@H](C1)N2c1ccc(C(=O)NCC(F)F)cn1` [Example 372, N-(2,2-difluoroethyl)-6-[3-endo-({2-[4-fluoro-2-(trifluoromethyl)phenoxy]-2-methylpropanoyl}amino)-8-azabicyclo[3.2.1]oct-8-yl]pyridine-3-carboxamide] stands below 200 nM; under `CC(C)(Oc1ccc(F)c(Cl)c1)C(=O)N[C@H]1C[C@H]2CC[C@@H](C1)N2c1ccc(S(C)(=O)=O)cn1` [Example 226, 2-[(3-chloro-4-fluorophenyl)oxy]-2-methyl-N-{8-[5-(methylsulfonyl)pyridin-2-yl]-8-azabicyclo[3.2.1]oct-3-endo-yl}propanamide], below 200 nM.
The result for `C[C@@H](NC(=O)c1ccc(N2C3CCC2CC(NC(=O)C(C)(C)Oc2ccc(Cl)cc2C(F)F)C3)nc1)C(F)(F)F` (stereo partly drawn) [Example 411, 6-(3-endo-(2-(4-chloro-2-(difluoromethyl)phenoxy)-2-methylpropanamido)-8-azabicyclo[3.2.1]octan-8-yl)-N-((R)-1,1,1-trifluoropropan-2-yl)nicotinamide] reads below 200 nM; that for `CC(C)(Oc1ccc(Cl)cc1Cl)C(=O)NC1CC2CCC(C1)N2c1ccc(C(=O)NC(CO)C(F)(F)F)cn1` (stereo not drawn) [Example 463, 6-(3-endo-{[2-(2,4-dichlorophenoxy)-2-methylpropanoyl]amino}-8-azabicyclo[3.2.1]oct-8-yl)-N-(1,1,1-trifluoro-3-hydroxypropan-2-yl)pyridine-3-carboxamide], below 200 nM; that for `CC(C)(Oc1ccc(Cl)cc1Cl)C(=O)N[C@H]1C[C@H]2CC[C@@H](C1)N2c1ccc(C(N)=O)cn1` [Example 56, 6-[3-endo-({2-[(2,4-dichlorophenyl)oxy]-2-methylpropanoyl}amino)-8-azabicyclo[3.2.1]oct-8-yl]pyridine-3-carboxamide], below 200 nM.
The result for `CC(C)(Oc1ncc(Cl)cc1Cl)C(=O)N[C@H]1C[C@H]2CC[C@@H](C1)N2c1ccc(C(N)=O)cn1` [Example 124, 6-[3-endo-({2-[(3,5-dichloropyridin-2-yl)oxy]-2-methylpropanoyl}amino)-8-azabicyclo[3.2.1]oct-8-yl]pyridine-3-carboxamide] reads below 200 nM.
`CC(C)(Oc1cc(Cl)c(F)cc1Cl)C(=O)N[C@H]1C[C@H]2CC[C@@H](C1)N2c1ccc(NS(C)(=O)=O)cn1` [Example 270, 2-[(2,5-dichloro-4-fluorophenyl)oxy]-2-methyl-N-(8-{5-[(methylsulfonyl)amino]pyridin-2-yl}-8-azabicyclo[3.2.1]oct-3-endo-yl)propanamide]: the IC50 is below 200 nM.
The result for `CC(C)(Oc1ccc(F)c(Cl)c1)C(=O)N[C@H]1C[C@H]2CC[C@@H](C1)N2c1ccc(C(=O)NCC(F)(F)F)cn1` [Example 93, 6-[3-endo-({2-[(3-chloro-4-fluorophenyl)oxy]-2-methylpropanoyl}amino)-8-azabicyclo[3.2.1]oct-8-yl]-N-(2,2,2-trifluoroethyl)pyridine-3-carboxamide] reads below 200 nM.
